Measurements: PubChem BioAssay AID312 (DTP/NCI, 2004)
Values joined by “and” are separate entries in the source; they are usually repeats but may differ in a detail not shown here. Equal entries are not always repeated. Toxic doses and inconclusive results are not listed.

Tested on: BDF1 mice, C1498 leukemia ip, median survival T/C
Experiment: NCI In Vivo Anticancer Drug Screen. Data for tumor model C1498 Myeloid Leukemia (intraperitoneal) in B6D2F1 (BDF1) mice
Conditions: endpoint: median survival time, higher = longer survival
Experimental: The antitumor activity of compounds was measured in mice bearing transplantable tumors. Survival or tumor size were measured and the results are expressed as the measurement made in the treated group (T) divided by the measurement made in the vehicle treated control group (C). The tumor model used in this assay is C1498 Myeloid Leukemia (intraperitoneal) in B6D2F1 (BDF1) mice

[1] = dose: 1.25 mg/kg/injection, schedule: Q01DX010 (ip), vehicle: saline
[2] = dose: 2.5 mg/kg/injection, schedule: Q01DX010 (ip), vehicle: saline
[3] = dose: 5.0 mg/kg/injection, schedule: Q01DX010 (ip), vehicle: saline
[4] = dose: 10.0 mg/kg/injection, schedule: Q01DX010 (ip), vehicle: saline
[5] = dose: 25.0 mg/kg/injection, schedule: Q01DX010 (ip), vehicle: saline
[6] = dose: 50.0 mg/kg/injection, schedule: Q01DX010 (ip), vehicle: saline
[7] = dose: 100.0 mg/kg/injection, schedule: Q01DX010 (ip), vehicle: saline
[8] = dose: 8.0 mg/kg/injection, schedule: Q01DX010 (ip), vehicle: saline
[9] = dose: 16.0 mg/kg/injection, schedule: Q01DX010 (ip), vehicle: saline
[10] = dose: 3.13 mg/kg/injection, schedule: Q01DX010 (ip), vehicle: saline
[11] = dose: 6.25 mg/kg/injection, schedule: Q01DX010 (ip), vehicle: saline
[12] = dose: 200.0 mg/kg/injection, schedule: Q01DX010 (ip), vehicle: saline
[13] = dose: 400.0 mg/kg/injection, schedule: Q01DX010 (ip), vehicle: saline
[14] = dose: 2.0 mg/kg/injection, schedule: Q01DX010 (ip), vehicle: saline
[15] = dose: 30.0 mg/kg/injection, schedule: Q01DX010 (ip), vehicle: saline
[16] = dose: 60.0 mg/kg/injection, schedule: Q01DX010 (ip), vehicle: saline
[17] = dose: 0.5 mg/kg/injection, schedule: Q01DX010 (ip), vehicle: saline
[18] = dose: 4.0 mg/kg/injection, schedule: Q01DX010 (ip), vehicle: saline
[19] = dose: 125.0 mg/kg/injection, schedule: Q01DX010 (ip), vehicle: saline
[20] = dose: 12.5 mg/kg/injection, schedule: Q01DX010 (ip), vehicle: saline

N#[N+]c1cnc([O-])[nH]c1=O
T/C [1]: 100 % of control
T/C [2]: 122 % of control
T/C [3]: 113 % of control
T/C [4]: 118 % of control

CC(=O)O[C@]1(C(C)=O)CC[C@H]2[C@@H]3C[C@H](C)C4=CC(=O)C=C[C@]4(C)[C@@]3(F)[C@@H](O)C[C@@]21C
T/C (dose: 12.5 mg/kg/injection, schedule: Q01DX010 (sc), vehicle: steriod suspending solution): 100 % of control
T/C (dose: 25.0 mg/kg/injection, schedule: Q01DX010 (sc), vehicle: steriod suspending solution): 100 % of control
T/C (dose: 50.0 mg/kg/injection, schedule: Q01DX010 (sc), vehicle: steriod suspending solution): 100 % of control
T/C (dose: 100.0 mg/kg/injection, schedule: Q01DX010 (sc), vehicle: steriod suspending solution): 100 % of control

COc1cc(-c2ccc(Nc3ccccc3C(=O)O)c(OC)c2)ccc1Nc1ccccc1C(=O)O
T/C [5]: 112 % of control
T/C [6]: 104 % of control
T/C [7]: 100 % of control

Nc1nc(SCc2ccccc2)c2[nH]cnc2n1
T/C [8]: 100 % of control
T/C [9]: 105 % of control
T/C (dose: 32.0 mg/kg/injection, schedule: Q01DX010 (ip), vehicle: saline): 105 % of control
T/C (dose: 64.0 mg/kg/injection, schedule: Q01DX010 (ip), vehicle: saline): 90 % of control

O=C(O)CCCc1ccc(N(CCCl)CCCl)cc1
T/C [10]: 110 % of control
T/C [11]: 120 % of control

C[C@@H]1C[C@@H]([C@H](O)CC2CC(=O)NC(=O)C2)C(=O)[C@@H](C)C1
T/C [3]: 104 % of control and 109 % of control
T/C [4]: 114 % of control and 122 % of control
T/C (dose: 20.0 mg/kg/injection, schedule: Q01DX010 (ip), vehicle: saline): 113 % of control and 123 % of control
T/C (dose: 40.0 mg/kg/injection, schedule: Q01DX010 (ip), vehicle: saline): 113 % of control

O=c1cnn(C2OC(CO)C(O)C2O)c(=O)[nH]1 (stereo not drawn)
T/C [12]: 104 % of control
T/C [13]: 100 % of control
T/C (dose: 800.0 mg/kg/injection, schedule: Q01DX010 (ip), vehicle: saline): 100 % of control

O=C(Nc1ccc(NC2=NCCN2)cc1)c1ccc(C(=O)Nc2ccc(NC3=NCCN3)cc2)cc1
T/C [14]: 113 % of control and 123 % of control
T/C [8]: 172 % of control and 190 % of control
T/C [9]: 109 % of control and 114 % of control

Clc1ncnc2nc[nH]c12
T/C (dose: 7.5 mg/kg/injection, schedule: Q01DX010 (ip), vehicle: saline): 95 % of control and 100 % of control
T/C (dose: 15.0 mg/kg/injection, schedule: Q01DX010 (ip), vehicle: saline): 95 % of control and 90 % of control
T/C [15]: 104 % of control and 90 % of control
T/C [16]: 95 % of control

Nc1nc(=S)c2ncn(C3OC(CO)C(O)C3O)c2[nH]1 (stereo not drawn)
T/C [17]: 113 % of control
T/C [14]: 100 % of control and 111 % of control
T/C [18]: 100 % of control and 90 % of control
T/C [8]: 107 % of control

CCCSc1ncnc2nc[nH]c12
T/C (dose: 31.3 mg/kg/injection, schedule: Q01DX010 (ip), vehicle: saline): 100 % of control and 104 % of control
T/C (dose: 62.5 mg/kg/injection, schedule: Q01DX010 (ip), vehicle: saline): 100 % of control and 109 % of control
T/C [19]: 104 % of control and 90 % of control

CS(=O)(=O)OCC(O)C(O)C(O)C(O)COS(C)(=O)=O (stereo not drawn)
T/C [5]: 100 % of control (2×) and 104 % of control
T/C [6]: 95 % of control and 100 % of control and 108 % of control
T/C [7]: 100 % of control (2×) and 109 % of control
T/C [12]: 104 % of control

O=NN(CCCl)C(=O)NCCCl
T/C (dose: 30.0 mg/kg/injection, schedule: Q01DX001 (ip), vehicle: saline + alcohol): 420 % of control
T/C (dose: 35.0 mg/kg/injection, schedule: Q01DX001 (ip), vehicle: saline + alcohol): 247 % of control

CSc1ncnc2nc[nH]c12
T/C [20]: 100 % of control
T/C [5]: 95 % of control
T/C [6]: 100 % of control
T/C [7]: 100 % of control

Nc1nc(=S)c2[nH]cnc2[nH]1
T/C (dose: 1.25 mg/kg/injection, schedule: Q01DX010 (ip), vehicle: other): 104 % of control
T/C (dose: 2.5 mg/kg/injection, schedule: Q01DX010 (ip), vehicle: other): 123 % of control
T/C (dose: 5.0 mg/kg/injection, schedule: Q01DX010 (ip), vehicle: other): 104 % of control
T/C (dose: 10.0 mg/kg/injection, schedule: Q01DX010 (ip), vehicle: other): 109 % of control
T/C (dose: 27.0 mg/kg/injection, schedule: Q01DX001 (ip), vehicle: alkali diluted with saline): 97 % of control
T/C (dose: 40.0 mg/kg/injection, schedule: Q01DX001 (ip), vehicle: alkali diluted with saline): 101 % of control
T/C (dose: 60.0 mg/kg/injection, schedule: Q01DX001 (ip), vehicle: alkali diluted with saline): 112 % of control
T/C (dose: 90.0 mg/kg/injection, schedule: Q01DX001 (ip), vehicle: alkali diluted with saline): 150 % of control

CN(C)c1nc(N(C)C)nc(N(C)C)n1
T/C (dose: 18.8 mg/kg/injection, schedule: Q01DX010 (ip), vehicle: saline): 100 % of control and 109 % of control
T/C (dose: 37.5 mg/kg/injection, schedule: Q01DX010 (ip), vehicle: saline): 104 % of control and 118 % of control
T/C (dose: 75.0 mg/kg/injection, schedule: Q01DX010 (ip), vehicle: saline): 100 % of control and 109 % of control
T/C (dose: 150.0 mg/kg/injection, schedule: Q01DX010 (ip), vehicle: saline): 109 % of control and 118 % of control

Nc1nc(N)c2nc(CNc3ccc(C(=O)NC(CCC(=O)O)C(=O)O)cc3)cnc2n1 (stereo not drawn)
T/C (dose: 0.05 mg/kg/injection, schedule: Q01DX010 (ip), vehicle: other): 100 % of control and 103 % of control
T/C (dose: 0.1 mg/kg/injection, schedule: Q01DX010 (ip), vehicle: other): 92 % of control and 100 % of control
T/C (dose: 0.2 mg/kg/injection, schedule: Q01DX010 (ip), vehicle: other): 100 % of control
T/C (dose: 0.4 mg/kg/injection, schedule: Q01DX010 (ip), vehicle: other): 92 % of control

CS(=O)(=O)OCCCCOS(C)(=O)=O
T/C [11]: 95 % of control
T/C [20]: 95 % of control and 90 % of control
T/C [5]: 113 % of control
T/C [6]: 109 % of control and 119 % of control

O=C(O)c1[nH]c(=O)[nH]c(=O)c1F
T/C [1]: 116 % of control and 118 % of control
T/C [2]: 122 % of control
T/C [3]: 158 % of control and 163 % of control
T/C [4]: 95 % of control and 109 % of control

C[C@H]1C(=O)O[C@@H]2CCN3CC=C(COC(=O)[C@](C)(O)[C@@]1(C)O)[C@H]23
T/C [10]: 100 % of control and 103 % of control
T/C [11]: 100 % of control
T/C [20]: 95 % of control and 107 % of control
T/C [5]: 95 % of control and 96 % of control

Nc1nc2n[nH]nc2c(=O)[nH]1
T/C (dose: 25.0 mg/kg/injection, schedule: Q01DX010 (ip), vehicle: alkali diluted with saline): 92 % of control and 96 % of control
T/C (dose: 50.0 mg/kg/injection, schedule: Q01DX010 (ip), vehicle: alkali diluted with saline): 92 % of control and 96 % of control
T/C (dose: 100.0 mg/kg/injection, schedule: Q01DX010 (ip), vehicle: alkali diluted with saline): 100 % of control and 89 % of control
T/C (dose: 200.0 mg/kg/injection, schedule: Q01DX010 (ip), vehicle: alkali diluted with saline): 96 % of control

N=[N+]=CC(=O)OCC(N)C(=O)O (stereo not drawn)
T/C [11]: 150 % of control

CCOC(N)=O
T/C [19]: 95 % of control and 104 % of control
T/C (dose: 250.0 mg/kg/injection, schedule: Q01DX010 (ip), vehicle: saline): 95 % of control and 100 % of control
T/C (dose: 500.0 mg/kg/injection, schedule: Q01DX010 (ip), vehicle: saline): 95 % of control and 109 % of control

CC[C@]1(O)C[C@H]2CN(CCc3c([nH]c4ccccc34)[C@@](C(=O)OC)(c3cc4c(cc3OC)N(C=O)[C@H]3[C@@](O)(C(=O)OC)[C@H](OC(C)=O)[C@]5(CC)C=CCN6CC[C@]43[C@@H]65)C2)C1
T/C (dose: 1.0 mg/kg/injection, schedule: Q04DX003 (ip), vehicle: saline): 112 % of control
T/C (dose: 1.5 mg/kg/injection, schedule: Q04DX003 (ip), vehicle: saline): 115 % of control
T/C (dose: 2.0 mg/kg/injection, schedule: Q04DX003 (ip), vehicle: saline): 118 % of control

N#CCSc1ncnc2nc[nH]c12
T/C [15]: 105 % of control
T/C [16]: 110 % of control

CN(C)/N=N/c1nc[nH]c1C(N)=O
T/C [5]: 108 % of control
T/C [6]: 112 % of control
T/C [7]: 158 % of control
T/C [12]: 158 % of control and 159 % of control
T/C [13]: 118 % of control

Nc1nc(F)nc2c1ncn2C1OC(CO)C(O)C1O (stereo not drawn)
T/C [17]: 100 % of control
T/C (dose: 1.0 mg/kg/injection, schedule: Q01DX010 (ip), vehicle: saline): 100 % of control and 105 % of control and 108 % of control
T/C [14]: 100 % of control and 105 % of control and 108 % of control
T/C [18]: 100 % of control and 108 % of control and 110 % of control
